Source: patent US20110112135A1, “Imidazo [1,2-A] Pyridine Compounds” (priority 2007, published 2011)

Experiments:
[1] = target: T1, human LXRα (Homo sapiens, UniProt Q13133); test: Ligand-binding test procedure for human LXRα (3H T0901317 tracer, flash plates); conditions: biotinylated hLXRα from E. coli extract; tracer 3H T0901317
T1 construct: biotin (biotinylated); made in house; host or cells: E. coli (crude extract)
T1 sequence (Q13133 1-447): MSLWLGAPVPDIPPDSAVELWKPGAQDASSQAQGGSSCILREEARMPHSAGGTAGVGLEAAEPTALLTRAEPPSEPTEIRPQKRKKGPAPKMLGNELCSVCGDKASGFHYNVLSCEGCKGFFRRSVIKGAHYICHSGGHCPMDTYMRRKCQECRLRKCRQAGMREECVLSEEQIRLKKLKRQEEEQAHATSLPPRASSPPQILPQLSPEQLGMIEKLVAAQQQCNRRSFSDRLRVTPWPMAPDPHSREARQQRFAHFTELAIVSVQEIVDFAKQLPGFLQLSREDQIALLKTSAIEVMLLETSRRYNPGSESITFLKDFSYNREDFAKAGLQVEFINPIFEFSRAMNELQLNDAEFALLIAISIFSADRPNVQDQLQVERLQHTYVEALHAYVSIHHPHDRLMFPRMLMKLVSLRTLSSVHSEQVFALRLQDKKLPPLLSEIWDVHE
Experimental: II. Ligand-Binding Test Procedure for Human LXRα.
Receptor source: E. coli extract from cells expressing biotinylated hLXRα. Extract was made in a similar buffer as above, but with 50 mM TRIS.
(§1) Washed streptavidin and coated flash plates with wash buffer. Diluted receptor extract to give Bmax ˜4000 cpm and add to the wells. Wrapped the plates in aluminum foil and stored them at +4° C. over night.
(§2) Made a dilution series in DMSO of the test ligands. Made a 5 nM solution of the radioactive tracer in buffer. Mixed 250 μl diluted tracer with 5 μl of the test ligand from each concentration of the dilution series. Washed the receptor-coated flash plates. Added 200 μl per well of the ligand/radiolabel mixture to the receptor-coated flash plates. Wrapped the plates in aluminum foil and incubate at +4° C. over night.
(§3) Aspirated wells, and wash the flashed plates. Sealed the plate. Measured the remaining radioactivity in the plate.

[2] = target: T2, human LXRβ (Homo sapiens, UniProt P55055); test: Ligand-binding test procedure for human LXRβ (3H T0901317 tracer, flash plates); conditions: biotinylated hLXRβ from E. coli extract; tracer 3H T0901317
T2 construct: biotin (biotinylated); made in house; host or cells: E. coli (crude extract)
T2 sequence (P55055 1-460): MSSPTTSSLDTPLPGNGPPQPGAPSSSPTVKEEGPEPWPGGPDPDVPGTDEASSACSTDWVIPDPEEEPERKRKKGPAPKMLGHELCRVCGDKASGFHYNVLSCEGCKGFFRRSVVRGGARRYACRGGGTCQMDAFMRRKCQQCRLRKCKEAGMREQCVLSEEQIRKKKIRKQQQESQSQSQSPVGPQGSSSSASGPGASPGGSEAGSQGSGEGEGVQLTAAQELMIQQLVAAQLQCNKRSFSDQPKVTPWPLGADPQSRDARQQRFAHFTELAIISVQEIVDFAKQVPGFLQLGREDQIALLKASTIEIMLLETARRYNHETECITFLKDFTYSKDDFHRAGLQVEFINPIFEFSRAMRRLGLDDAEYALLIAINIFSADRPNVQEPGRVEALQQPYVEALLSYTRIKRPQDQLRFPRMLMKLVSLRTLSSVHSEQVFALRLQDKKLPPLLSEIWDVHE
Experimental: I. Ligand-Binding Test Procedure for Human LXRβ.
Receptor source: E. coli extract from cells expressing biotinylated hLXRβ. Extract was made in a similar buffer as above, but with 50 mM TRIS.
as §1, §2, §3

| IC50 [1] [µM] | IC50 [2] [µM] | SMILES |
| --- | --- | --- |
| 1.48 | 0.143 | CCCS(=O)(=O)c1cccc(Oc2cccc(-c3c(C)nc4c(C(F)(F)F)cccn34)c2)c1 [Example 11, 2-methyl-3-(3-(3-(propylsulfonyl)phenoxy)phenyl)-8-(trifluoromethyl)imidazo[1,2-a]pyridine] |
| 6.25 | 0.525 | Cc1nc2c(C(F)(F)F)cccn2c1-c1cccc(Oc2cccc(S(=O)(=O)CCC(C)(C)O)c2)c1 [Example 14, 2-methyl-4-[(3-{3-[2-methyl-8-(trifluoromethyl)imidazo[1,2-a]pyridin-3-yl]phenoxy}phenyl)sulfonyl]butan-2-ol] |
| 1.88 | 0.119 | Cc1nc2c(C(F)(F)F)cccn2c1-c1cccc(Oc2cc(F)cc(S(C)(=O)=O)c2)c1 [Example 15, 3-{3-[3-fluoro-5-(methylsulfonyl)phenoxy]phenyl}-2-methyl-8-(trifluoromethyl)imidazo[1,2-a]pyridine] |
| 4.77 | 0.508 | CCC(C)S(=O)(=O)c1ccc(Oc2cccc(-c3c(C)nc4c(C(F)(F)F)cccn34)c2)cc1 (stereo not shown) [Example 16, 3-{3-[4-(sec-butylsulfonyl)phenoxy]phenyl}-2-methyl-8-(trifluoromethyl)imidazo[1,2-a]pyridine] |
| 7.13 | 0.74 | CCc1nc2c(C(F)(F)F)cccn2c1-c1cccc(Oc2cccc(S(=O)(=O)CCC(C)(C)O)c2)c1 [Example 22, 4-(3-(3-(2-ethyl-8-(trifluoromethyl)imidazo[1,2-a]pyridin-3-yl)phenoxy)phenylsulfonyl)-2-methylbutan-2-ol] |
| 0.221 | 0.005 | CCS(=O)(=O)c1cccc(Oc2cccc(-c3c(C(C)C)nc4c(C(F)(F)F)cccn34)c2)c1 [Example 26, 2-isopropyl-3-(3-(3-(ethylsulfonyl)phenoxy)phenyl)-8-(trifluoromethyl)imidazo[1,2-a]pyridine] |
| 0.144 | 0.008 | CC(C)c1nc2c(C(F)(F)F)cccn2c1-c1cccc(Oc2cccc(S(=O)(=O)C(C)C)c2)c1 [Example 27, 2-isopropyl-3-(3-(3-(isopropylsulfonyl)phenoxy)phenyl)-8-(trifluoromethyl)imidazo[1,2-a]pyridine] |
| 0.01 | 0.0013 | CCS(=O)(=O)c1cccc(Oc2cccc(-c3c(Cc4ccccc4)nc4c(C(F)(F)F)cccn34)c2)c1 [Example 29, 2-benzyl-3-(3-(3-(ethylsulfonyl)phenoxy)phenyl)-8-(trifluoromethyl)imidazo[1,2-a]pyridine] |
| 0.0158 | 0.0017 | CC(C)S(=O)(=O)c1cccc(Oc2cccc(-c3c(Cc4ccccc4)nc4c(C(F)(F)F)cccn34)c2)c1 [Example 30, 2-benzyl-3-(3-(3-(isopropylsulfonyl)phenoxy)phenyl)-8-(trifluoromethyl)imidazo[1,2-a]pyridine] |
| 10.2 | 3.65 | CC(C)c1nc2c(Cl)cccn2c1-c1cccc(Oc2ccc(S(N)(=O)=O)cc2)c1 [Example 39, 4-(3-(8-chloro-2-isopropylimidazo[1,2-a]pyridin-3-yl)phenoxy)benzenesulfonamide] |
| 0.92 | 0.409 | CCc1nc2c(Cl)cccn2c1-c1cccc(Oc2cccc(S(=O)(=O)N(Cc3ccc(OC)cc3)Cc3ccc(OC)cc3)c2)c1 [Example 42, 3-[3-(8-chloro-2-ethylimidazo[1,2-a]pyridin-3-yl)phenoxy]-N,N-bis(4-methoxybenzyl)benzenesulfonamide] |
| 0.0399 | 0.0147 | CCc1nc2c(Cl)cccn2c1-c1cccc(Oc2cccc(S(=O)(=O)N(C)Cc3ccc(OC)cc3)c2)c1 [Example 43, 3-[3-(8-chloro-2-ethylimidazo[1,2-a]pyridin-3-yl)phenoxy]-N-(4-methoxybenzyl)-N-methylbenzenesulfonamide] |
| > 1 | > 1 | CCc1nc2c(C#N)cccn2c1-c1cccc(Oc2cccc(S(=O)(=O)N(Cc3ccc(OC)cc3)Cc3ccc(OC)cc3)c2)c1 [Example 45, 3-[3-(8-cyano-2-ethylimidazo[1,2-a]pyridin-3-yl)phenoxy]-N,N-bis(4-methoxybenzyl)benzenesulfonamide] |
| 2.14 | 0.151 | CCc1nc2c(Cl)cccn2c1-c1cccc(Oc2cccc(S(N)(=O)=O)c2)c1 [Example 47, 3-[3-(8-chloro-2-ethylimidazo[1,2-a]pyridin-3-yl)phenoxy]benzenesulfonamide] |
| 14.7 | 0.94 | CCc1nc2c(C#N)cccn2c1-c1cccc(Oc2cccc(S(N)(=O)=O)c2)c1 [Example 50, 3-[3-(8-cyano-2-ethylimidazo[1,2-a]pyridin-3-yl)phenoxy]benzenesulfonamide] |
| 1.86 | 0.137 | CC(C)c1nc2c(Cl)cccn2c1-c1cccc(OCc2cccc(S(C)(=O)=O)c2)c1 [Example 53, 8-chloro-2-isopropyl-3-(3-{[3-(methylsulfonyl)benzyl]oxy}phenyl)imidazo[1,2-a]pyridine] |
| 41.1 | 3.06 | CCc1nc2c(C#N)cccn2c1-c1cccc(OCc2cccc(S(C)(=O)=O)c2)c1 [Example 54, 2-ethyl-3-(3-{[3-(methylsulfonyl)benzyl]oxy}phenyl)imidazo[1,2-a]pyridine-8-carbonitrile] |
| 28.5 | 1.1 | CC(C)c1nc2c(C#N)cccn2c1-c1cccc(OCc2cccc(S(C)(=O)=O)c2)c1 [Example 55, 2-isopropyl-3-(3-{[3-(methylsulfonyl)benzyl]oxy}phenyl)imidazo[1,2-a]pyridine-8-carbonitrile] |
| 36.5 | 4.19 | CC(C)c1nc2c(C(F)(F)F)cccn2c1-c1cccc(OCc2ccc(S(C)(=O)=O)cc2)c1 [Example 56, 2-isopropyl-3-(3-{[4-(methylsulfonyl)benzyl]oxy}phenyl)-8-(trifluoromethyl)imidazo[1,2-a]pyridine] |
| > 1 | 8.43 | CC(C)c1nc2c(Cl)cccn2c1-c1cccc(OCc2ccc(S(C)(=O)=O)cc2)c1 [Example 57, 8-chloro-2-isopropyl-3-(3-{[4-(methylsulfonyl)benzyl]oxy}phenyl)imidazo[1,2-a]pyridine] |
| > 1 | > 1 | CCc1nc2c(C#N)cccn2c1-c1cccc(OCc2ccc(S(C)(=O)=O)cc2)c1 [Example 58, 2-ethyl-3-(3-{[4-(methylsulfonyl)benzyl]oxy}phenyl)imidazo[1,2-a]pyridine-8-carbonitrile] |
| > 1 | > 1 | CC(C)c1nc2c(C#N)cccn2c1-c1cccc(OCc2ccc(S(C)(=O)=O)cc2)c1 [Example 59, 2-isopropyl-3-(3-{[4-(methylsulfonyl)benzyl]oxy}phenyl)imidazo[1,2-a]pyridine-8-carbonitrile] |
| 2.81 | 0.0915 | CNCCCS(=O)(=O)c1cccc(Oc2cccc(-c3c(C(C)C)nc4c(C(F)(F)F)cccn34)c2)c1 [Example 62, 3-[(3-{3-[2-isopropyl-8-(trifluoromethyl)imidazo[1,2-a]pyridin-3-yl]phenoxy}phenyl)sulfonyl]-N-methylpropan-1-amine] |
| 2.7 | 0.161 | CCc1nc2c(C#N)cccn2c1-c1cccc(Oc2cccc(S(C)(=O)=O)c2)c1 [Example 69, 2-ethyl-3-{3-[3-(methylsulfonyl)phenoxy]phenyl}imidazo[1,2-a]pyridine-8-carbonitrile] |
| 0.135 | 0.0056 | CCS(=O)(=O)c1cccc(Oc2cccc(-c3c(C(C)(C)C)nc4c(C(F)(F)F)cccn34)c2)c1 [Example 76, 2-tert-butyl-3-{3-[3-(ethylsulfonyl)phenoxy]phenyl}-8-(trifluoromethyl)imidazo[1,2-a]pyridine] |
| 0.16 | 0.0061 | CC(C)S(=O)(=O)c1cccc(Oc2cccc(-c3c(C(C)(C)C)nc4c(C(F)(F)F)cccn34)c2)c1 [Example 77, 2-tert-butyl-3-{3-[3-(isopropylsulfonyl)phenoxy]phenyl}-8-(trifluoromethyl)imidazo[1,2-a]pyridine] |
